# Several values for one entry are separate records, joined by “and”; a condition that tells them apart may be missing. Equal entries are not always repeated. Where two headings read alike, the source gives them in different places.
# Key:
# Botrytis cinerea = test: Fungicidal action against Botrytis cinerea (gray mould), microtiter growth inhibition; assay type: cell-based; conditions: alone
# Procedure: Example B2: Fungicidal Action Against Botrytis cinerea (Gray Mould)
# (§1) Conidia of the fungus from cryogenic storage are directly mixed into nutrient broth (PDB potato dextrose broth). After placing a (DMSO) solution of the test compounds into a microtiter plate (96-well format) the nutrient broth containing the fungal spores is added. The test plates are incubated at 24° C. and the inhibition of growth is evaluated after 4 days. The expected fungicidal action is calculated according to the Colby method.
# [1] = test system: Cercospora arachidicola (syn. Mycosphaerella arachidis); test: Fungicidal action against Cercospora arachidicola (brown leaf spot of groundnut), microtiter growth inhibition; assay type: cell-based; conditions: for inhibition at 0.0039 ppm / inhibition at 0.0078 ppm: read-out: % activity; for inhibition at 0.125 ppm: 0.1250 ppm
# Procedure: Example B8: Fungicidal Action Against Cercospora arachidicola (Syn. Mycosphaerella arachidis), Brown Leaf Spot of Groundnut (Peanut)
# Conidia of the fungus from cryogenic storage are directly mixed into nutrient broth (PDB potato dextrose broth). After placing a (DMSO) solution of the test compounds into a microtiter plate (96-well format) the nutrient broth containing the fungal spores is added. The test plates are incubated at 24 C and the inhibition of growth is evaluated after 7 days.
# Alternaria solani = test: Fungicidal action against Alternaria solani (early blight tomato/potato), microtiter growth inhibition; assay type: cell-based; conditions: alone
# Procedure: Example B4: Fungicidal Action Against Alternaria solani (Early Blight Tomato/Potato)
# Conidia of the fungus from cryogenic storage are directly mixed into nutrient broth (PDB potato dextrose broth). After placing a (DMSO) solution of the test compounds into a microtiter plate (96-well format) the nutrient broth containing the fungal spores is added. The test plates are incubated at 24° C. and the inhibition of growth is evaluated after 3 days. The expected fungicidal action is calculated according to the Colby method.
# Septoria tritici = test: Fungicidal action against Septoria tritici (leaf blotch), microtiter growth inhibition; assay type: cell-based; conditions: for % activity: alone
# Procedure: Example B3: Fungicidal Action Against Septoria tritici (Leaf Blotch)
# as §1
# Phakopsora pachyrhizi = test: Action against Asian soybean rust, leaf disc test; assay type: in vivo; conditions: 14 days after inoculation
# Procedure: Example B-1: Action Against Asian Soybean Rust (Phakopsora pachyrhizi)—Leaf Disc Test
# Whole soybean plants (variety brand Williams82) are treated with the recited active ingredients 4 weeks after planting. 1 day after spraying leaf disks are cut from the first trifoliate leaf. Five repetitions at each rate are conducted. The leaf disks are inoculated with Phakopsora pachyrhizi (Asian soybean rust) one day after treatment. Evaluation of the leaf disks is conducted fourteen days after inoculation and the mean percent infestation of the five repetitions is calculated. Standard EC100 formulations are used. The rates of the active ingredients used are given in Table B1 as g active ingredient (a.i.)/ha.
# [2] = test system: Pseudocercosporella herpotrichoides (syn. Tapesia yallundae); test: Fungicidal action against Pseudocercosporella herpotrichoides (eye spot of cereals), microtiter growth inhibition; assay type: cell-based; conditions: alone
# Procedure: Example B5: Funicidal Action Against Pseudocercosporella herpotrichoides (Syn. Tapesia yallundae), Eye Spot of Cereals
# as §1
# Gaeumannomyces graminis = test: Fungicidal action against Gaeumannomyces graminis (take-all of cereals), microtiter growth inhibition; assay type: cell-based; conditions: for inhibition at 0.0039 ppm / inhibition at 0.0078 ppm / inhibition at 0.0313 ppm / inhibition at 0.0625 ppm: read-out: % activity; for inhibition at 0.25 ppm: 0.2500 ppm; for inhibition at 0.5 ppm: 0.5000 ppm
# Procedure: Example B7: Fungicidal Action Against Gaeumannomyces graminis (Take-all of Cereals)
# Mycelial fragments of the fungus from cryogenic storage are directly mixed into nutrient broth (PDB potato dextrose broth). After placing a (DMSO) solution of the test compounds into a microtiter plate (96-well format) the nutrient broth containing the fungal spores is added. The test plates are incubated at 24 C and the inhibition of growth is evaluated after 4 days.
# [3] = test system: Monopraphella nivalis (syn. Microdochium nivale, Fusarium nivale); test: Fungicidal action against Monopraphella nivalis (snow mould, foot rot of cereals), microtiter growth inhibition; assay type: cell-based; conditions: compound alone
# Procedure: Example B9: Fungicidal Action Against Monopraphella nivalis (Syn. Microdochium nivale, Fusarium nivale), Snow Mould, Foot Rot of Cereals
# Conidia of the fungus from cryogenic storage are directly mixed into nutrient broth (PDB potato dextrose broth). After placing a (DMSO) solution of the test compounds into a microtiter plate (96-well format) the nutrient broth containing the fungal spores is added. The test plates are incubated at 24 C and the inhibition of growth is evaluated after 4 days.
# Pyrenophora teres = test: Fungicidal action against Pyrenophora teres (net blotch), microtiter growth inhibition; assay type: cell-based
# Procedure: Example B6: Fungicidal Action Against Pyrenophora teres (Net Blotch)
# as §1
# [4] = test system: Colletotrichum lagenarium (syn. Glomerella lagenarium); test: Fungicidal action against Colletotrichum lagenarium (anthracnose of cucurbits), microtiter growth inhibition; assay type: cell-based; conditions: Colletotrichum orbiculare; compound alone, 0.1250 ppm
# Procedure: Example B10: Fungicidal Action Against Colletotrichum lagenarium (Syn. Glomerella lagenarium), Anthracnose of Cucurbits Conidia of the fungus from cryogenic storage are directly mixed into nutrient broth (PDB potato dextrose broth). After placing a (DMSO) solution of the test compounds into a microtiter plate (96-well format) the nutrient broth containing the fungal spores is added. The test plates are incubated at 24 C and the inhibition of growth is evaluated after 3 days.
# [5] = Mycosphaerella arachidis, compound alone, 0.0313 ppm
# [6] = Mycosphaerella arachidis, compound alone
# [7] = Gaeumannomyces graminis, compound alone, 0.0039 ppm
# [8] = Gaeumannomyces graminis, compound alone, 0.0078 ppm
# [9] = Gaeumannomyces graminis, compound alone
# [10] = Zymoseptoria tritici, read-out: % activity
# [11] = Pyrenophora teres, read-out: % activity
# [12] = Gaeumannomyces graminis, compound alone, 0.0625 ppm
structure (smiles),measurement,setting,value
"Cn1cc(C(=O)Nc2cccc3c2C2CCC3C2=C(Cl)Cl)c(C(F)F)n1 (stereo not shown) [Compound A-1.1, 3-difluoromethyl-1-methyl-1H-pyrazole-4-carboxylic acid (9-dichloromethylidene-benzonorbornene-5-yl)amide]",% activity,Botrytis cinerea; 0.0156 ppm,0%
same,% activity,Botrytis cinerea; 0.0313 ppm,0%
same,% activity,Botrytis cinerea; 0.0625 ppm,20%
same,% activity,Botrytis cinerea; 0.1250 ppm,20%
same,% activity,Botrytis cinerea; 0.5000 ppm,50% and 70%
same,% activity,Botrytis cinerea; 1.0000 ppm,90%
same,% activity,"[1]; compound alone, 0.0039 ppm",0%
same,% activity,"[1]; compound alone, 0.0078 ppm",0%
same,% activity,"[1]; compound alone, 0.0156 ppm",20%
same,% activity,"[1]; compound alone, 0.0313 ppm",70%
same,% activity,Alternaria solani; 0.0078 ppm,0%
same,% activity,Alternaria solani; 0.0156 ppm,20%
same,% activity,Alternaria solani; 0.0313 ppm,20%
same,% activity,Alternaria solani; 0.0625 ppm,50%
same,% activity,Alternaria solani; 0.1250 ppm,50%
same,% activity,Alternaria solani; 0.2500 ppm,50%
same,% activity,Septoria tritici; 0.0625 ppm,20%
same,% activity,Septoria tritici; 0.1250 ppm,50%
same,% activity,Septoria tritici; 0.2500 ppm,70%
same,% activity,Septoria tritici; 0.5000 ppm,90%
same,% Control of Phakopsora pachyrhizi,Phakopsora pachyrhizi; 31.25 g a.i./ha,36%
same,% Control of Phakopsora pachyrhizi,Phakopsora pachyrhizi; 62.5 g a.i./ha,36%
same,% Control of Phakopsora pachyrhizi,Phakopsora pachyrhizi; 125 g a.i./ha,82%
same,% Control of Phakopsora pachyrhizi,Phakopsora pachyrhizi; 250 g a.i./ha,87%
same,% activity,[2]; 0.0039 ppm,0%
same,% activity,[2]; 0.0078 ppm,0%
same,% activity,[2]; 0.0625 ppm,70%
same,% activity,"Gaeumannomyces graminis; compound alone, 0.0156 ppm",50% and 70%
same,% activity,[3]; 0.0313 ppm,20%
same,% activity,[3]; 0.0625 ppm,50%
same,% activity,[3]; 0.1250 ppm,90%
same,% activity,"Pyrenophora teres; 0.0078 ppm, alone",0%
same,% activity,"Pyrenophora teres; 0.0313 ppm, alone",20%
same,% activity,"Pyrenophora teres; 0.0625 ppm, alone",20%
same,% activity,"Pyrenophora teres; 0.1250 ppm, alone",20%
same,% activity,"Pyrenophora teres; 0.2500 ppm, alone",50%
same,% activity,"Pyrenophora teres; compound alone, 0.0313 ppm",20%
same,% activity,"Pyrenophora teres; compound alone, 0.0625 ppm",20%
same,% activity,"Pyrenophora teres; compound alone, 0.2500 ppm",50%
same,% activity,"Pyrenophora teres; compound alone, 0.5000 ppm",50% and 70%
same,% activity,"Pyrenophora teres; compound alone, 1.0000 ppm",70%
same,% activity,"Pyrenophora teres; compound alone, 2.0000 ppm",70%
"Cn1cc(C(=O)Nc2cccc3c2C2CCC3C2=C(Br)Br)c(C(F)F)n1 (stereo not shown) [Compound A-1.3, 3-difluoromethyl-1-methyl-1H-pyrazole-4-carboxylic acid (9-dibromomethylidene-benzonorbornene-5-yl)amide]",% Control of Phakopsora pachyrhizi,Phakopsora pachyrhizi; 31.25 g a.i./ha,36%
same,% Control of Phakopsora pachyrhizi,Phakopsora pachyrhizi; 62.5 g a.i./ha,36%
same,% Control of Phakopsora pachyrhizi,Phakopsora pachyrhizi; 125 g a.i./ha,54%
same,% Control of Phakopsora pachyrhizi,Phakopsora pachyrhizi; 250 g a.i./ha,93%
"Cn1cc(C(=O)Nc2ccc(F)cc2-c2ccc(Cl)c(Cl)c2)c(C(F)F)n1 [Compound B-5.11, 3-difluoromethyl-1-methyl-1H-pyrazole-4-carboxylic acid (3′,4′-dichloro-5-fluoro-1,1′-biphenyl-2-yl)-amide]",inhibition at 0.0039 ppm,"[1]; Mycosphaerella arachidis, compound alone, 0.0039 ppm",0%
same,inhibition at 0.0078 ppm,"[1]; Mycosphaerella arachidis, compound alone, 0.0078 ppm",0%
same,inhibition at 0.0156 ppm,"[1]; Mycosphaerella arachidis, compound alone, 0.0156 ppm",20%
same,inhibition at 0.0313 ppm,[1]; [5],70%
same,inhibition at 0.0313 ppm,"[3]; Microdochium nivale, 0.0313 ppm",0%
same,inhibition at 0.0625 ppm,"[3]; Microdochium nivale, 0.0625 ppm",0%
same,inhibition at 0.125 ppm,"[3]; Microdochium nivale, 0.1250 ppm",0%
same,inhibition at 0.25 ppm,"[3]; Microdochium nivale, 0.2500 ppm",20%
"O=C(NCCc1ncc(C(F)(F)F)cc1Cl)c1ccccc1C(F)(F)F [Compound B-5.12, N-{2-[3-chloro-5-(trifluoromethyl)pyridin-2-yl]ethyl}-2-(trifluoromethyl)benzamid]",inhibition at 0.0313 ppm,[1]; [5],0%
same,inhibition at 0.0625 ppm,[1]; [6],0%
same,inhibition at 0.125 ppm,[1]; [6],20%
same,inhibition at 0.25 ppm,"[1]; Mycosphaerella arachidis, compound alone, 0.2500 ppm",20%
same,inhibition at 0.0039 ppm,Gaeumannomyces graminis; [7],0%
same,inhibition at 0.0078 ppm,Gaeumannomyces graminis; [8],0%
same,inhibition at 0.0156 ppm,"Gaeumannomyces graminis; Gaeumannomyces graminis, compound alone, 0.0156 ppm",0%
same,inhibition at 0.0313 ppm,"Gaeumannomyces graminis; Gaeumannomyces graminis, compound alone, 0.0313 ppm",0%
same,inhibition at 0.125 ppm,"Gaeumannomyces graminis; Gaeumannomyces graminis, compound alone, 0.1250 ppm",0%
same,inhibition at 0.25 ppm,Gaeumannomyces graminis; [9],0%
same,inhibition at 0.5 ppm,Gaeumannomyces graminis; [9],0%
same,inhibition at 1 ppm,"Gaeumannomyces graminis; Gaeumannomyces graminis, compound alone, 1.0000 ppm",0%
same,inhibition at 2 ppm,"Gaeumannomyces graminis; Gaeumannomyces graminis, compound alone, 2.0000 ppm",0%
CC(C)C1CCC(Cc2ccc(Cl)cc2)C1(O)Cn1cncn1 (stereo not shown) [Ipconazole],inhibition at 0.125 ppm,[4],20%
"C#CCOc1ccc(CCNC(=O)C(OCC#C)c2ccc(Cl)cc2)cc1OC (stereo not shown) [Mandipropamid, mandipropamid]",inhibition at 0.0039 ppm,[1]; Mycosphaerella arachidis,0%
same,inhibition at 0.0078 ppm,[1]; Mycosphaerella arachidis,0%
same,inhibition at 0.125 ppm,Septoria tritici; [10],0%
same,inhibition at 0.25 ppm,Septoria tritici; [10],0%
same,inhibition at 0.5 ppm,Septoria tritici; [10],0%
same,inhibition at 0.0039 ppm,Gaeumannomyces graminis; Gaeumannomyces graminis,0%
same,inhibition at 0.0078 ppm,Gaeumannomyces graminis; Gaeumannomyces graminis,0%
same,inhibition at 0.0313 ppm,Gaeumannomyces graminis; Gaeumannomyces graminis,0%
same,inhibition at 0.0625 ppm,Gaeumannomyces graminis; Gaeumannomyces graminis,0%
same,inhibition at 0.5 ppm,Pyrenophora teres; [11],0%
same,inhibition at 1 ppm,Pyrenophora teres; [11],0%
CCCC1COC(Cn2cncn2)(c2ccc(Cl)cc2Cl)O1 (stereo not shown) [Propiconazole],inhibition at 0.0313 ppm,[1]; [5],20%
same,inhibition at 0.0625 ppm,[1]; [6],70%
same,inhibition at 0.125 ppm,[1]; [6],90%
same,inhibition at 0.0039 ppm,Gaeumannomyces graminis; [7],0%
same,inhibition at 0.0078 ppm,Gaeumannomyces graminis; [8],0%
same,inhibition at 0.0625 ppm,Gaeumannomyces graminis; [12],0%
same,inhibition at 1 ppm,"Pyrenophora teres; Pyrenophora teres, compound alone, 1.0000 ppm, read-out: % activity",20%
same,inhibition at 2 ppm,"Pyrenophora teres; Pyrenophora teres, compound alone, 2.0000 ppm",50%
OC(Cc1ccccc1Cl)(Cn1nc[nH]c1=S)C1(Cl)CC1 (stereo not shown) [Prothioconazole],inhibition at 0.0625 ppm,[1]; [6],70%
same,inhibition at 0.0625 ppm,Gaeumannomyces graminis; [12],50%
same,inhibition at 0.25 ppm,Gaeumannomyces graminis; [9],90%
same,inhibition at 0.5 ppm,Gaeumannomyces graminis; [9],90%

# — patent publication US10143201B2, “Fungicidal compositions” (Syngenta Crop Protection LLC, priority 2007, dated 2018)
